Mutagenic call and call data for 23 molecules are collected here from PubChem BioAssay AID1259408 (Genetic Toxicology Data Bank (GENE-TOX), 2018).

Each structure is given as a SMILES string. Active and inactive are the calls of the source. How the calls were made is not given here.

The test system of this series is GENE-TOX genotoxicity assays, various organisms and cells. Description: GENE-TOX mutagenicity studies. The note with it: for call: Assay Type: In vivo carcinogenicity studies.
The mark [1] stands for this setting: Species/Cell Type: Human, Assay Type: Sister-chromatid exchange (SCE) in vitro, Assay Code: SC1+, Evaluation Type: Evaluation B (Post-1980).
Where [2] appears, read: Species/Cell Type: Saccharomyces cerevisiae, Assay Type: Mitotic recombination or gene conversion, Assay Code: YEH-, Evaluation Type: Evaluation A (Pre-1980).
[3] abbreviates: Species/Cell Type: Nonhuman, Assay Type: Sister-chromatid exchange (SCE) in vitro, Assay Code: SC2-, Evaluation Type: Evaluation B (Post-1980).
Setting [4] is: Species/Cell Type: Neurospora crassa, Assay Type: Reverse gene mutation, Assay Code: NER+, Evaluation Type: Evaluation A (Pre-1980).
Where [5] appears, read: Species/Cell Type: Drosophila melanogaster, Assay Type: Sex-linked recessive lethal gene mutation, Assay Code: SRLT, Evaluation Type: Evaluation A (Pre-1980).
Where [6] appears, read: Species/Cell Type: Rodents, Sex: Male, Assay Type: Dominant lethal test, Assay Code: DLT-, Evaluation Type: Evaluation A (Pre-1980).
Setting [7] is: Species/Cell Type: Salmonella typhimurium (one or more of the five standard strains: TA98, TA100, TA1535, TA1537, and TA1538), Assay Type: Histidine reverse gene mutation, Ames assay, Assay Code: SALT, Evaluation Type: Evaluation A (Pre-1980).
[8] abbreviates: Species/Cell Type: Salmonella typhimurium (one or more of the five standard strains: TA98, TA100, TA1535, TA1537, and TA1538), Assay Type: Histidine reverse gene mutation, Ames assay, Assay Code: SAL+*, Activation: With metabolic activation, Evaluation Type: Evaluation A (Pre-1980).
Setting [9] is: Species/Cell Type: Nonhuman, Assay Type: Sister-chromatid exchange (SCE) in vitro, Assay Code: SC2+D, Dose Response: With dose response, Evaluation Type: Evaluation B (Post-1980).
Setting [10] is: Species/Cell Type: Bacillus subtilis (H17 vs M45), Assay Type: Rec-assay, spot test, DNA effects (bacterial DNA repair), Assay Code: REW-, Evaluation Type: Evaluation A (Pre-1980).

For the molecule `CCCCCCCCCCCCCC(=O)O[C@@H]1[C@@H](C)[C@@]2(O)[C@@H](C=C(CO)C[C@]3(O)C(=O)C(C)=C[C@@H]23)[C@@H]2C(C)(C)[C@]12OC(C)=O`, the mutagenic call is “inactive; negative” (Species/Cell Type: Chinese hamster lung (V79) cells, Assay Type: Forward gene mutation at the HPRT or ouabain locus, Assay Code: V79-, Evaluation Type: Evaluation A (Pre-1980)); “no conclusion” (Species/Cell Type: Escherichia coli polA (W3119 vs P3478), Assay Type: Rec-assay, DNA effects (bacterial DNA repair), Assay Code: RE1T, Evaluation Type: Evaluation A (Pre-1980)); “inactive; negative” (Species/Cell Type: Fischer rat embryo (RLV/1706) cells, Assay Type: Cell transformation, viral enhanced, Assay Code: CTR-, Evaluation Type: Evaluation A (Pre-1980)); “active; positive” under setting [1]; “inactive; negative” (Species/Cell Type: Mouse (C3H/10T1/2) cells, Assay Type: Cell transformation, Assay Code: CTH-, Evaluation Type: Evaluation A (Pre-1980)); “active; positive” (Species/Cell Type: Nonhuman, Assay Type: Sister-chromatid exchange (SCE) in vitro, Assay Code: SC2+, Evaluation Type: Evaluation A (Pre-1980)). In addition, the mutagenic call is, setting by setting: (Species/Cell Type: Nonhuman, Assay Type: Sister-chromatid exchange (SCE) in vitro, Assay Code: SC2T, Evaluation Type: Evaluation B (Post-1980)) “no conclusion”; under setting [2], “inactive; negative”; (Species/Cell Type: Salmonella typhimurium (one or more of the five standard strains: TA98, TA100, TA1535, TA1537, and TA1538), Assay Type: Histidine reverse gene mutation, Ames assay, Assay Code: SAL-, Evaluation Type: Evaluation A (Pre-1980)) “inactive; negative”; (Species/Cell Type: Syrian hamster embryo (SHE) cells, Assay Type: Cell transformation, clonal assay, Assay Code: CTC-, Evaluation Type: Evaluation A (Pre-1980)) “inactive; negative”.
On to `O=[N+]([O-])c1ccc(F)c([N+](=O)[O-])c1`, for which the mutagenic call reads like this: (Species/Cell Type: Escherichia coli polA (W3119 vs P3478), Assay Type: Rec-assay, DNA effects (bacterial DNA repair), Assay Code: RE1+, Evaluation Type: Evaluation A (Pre-1980)) “active; positive”; under setting [3], “inactive; negative”; (Species/Cell Type: Saccharomyces cerevisiae, Assay Type: Forward gene mutation, Assay Code: YEF+, Evaluation Type: Evaluation A (Pre-1980)) “active; positive”; (Species/Cell Type: Saccharomyces cerevisiae, Assay Type: Mitotic recombination or gene conversion, Assay Code: YEC+, Evaluation Type: Evaluation A (Pre-1980)) “active; positive”; (Species/Cell Type: Saccharomyces cerevisiae, Assay Type: Mitotic recombination or gene conversion, Assay Code: YEH+, Evaluation Type: Evaluation A (Pre-1980)) “active; positive”.
On to `CC(C)(C)OOCO`, for which the mutagenic call under setting [4] was “active; positive”.
Turning to `CCN(CCCl)CCCNc1ccnc2cc(Cl)ccc12`, the mutagenic call under setting [4] is “active; positive”.
In the case of `ClC1=C(Cl)[C@]2(Cl)[C@@H]3[C@@H](Cl)[C@H]4O[C@H]4[C@@H]3[C@@]1(Cl)C2(Cl)Cl`, the mutagenic call under setting [5] is given as “no conclusion”, the mutagenic call under setting [6] is “inactive; negative” and the mutagenic call under setting [7] is “no conclusion”.
Consider `N#CCCN`, for which the mutagenic call runs as follows: under setting [5], “no conclusion”; (Species/Cell Type: Nonhuman, Assay Type: Sister-chromatid exchange (SCE) in vivo, Assay Code: SC3+, Evaluation Type: Evaluation B (Post-1980)) “active; positive”.
Regarding `Cc1ccc2ncccc2c1`, the mutagenic call under setting [8] is “active; positive”.
As to `CCNC(=O)Nc1ncc([N+](=O)[O-])s1`, the call (Species/Cell Type: Nonhuman, Assay Code: CCG+, Evaluation Type: Evaluation A (Pre-1980)) is “active; positive”.
Consider `OCC(Br)CBr` (centres undefined), for which the mutagenic call (Species/Cell Type: Salmonella typhimurium (one or more of the five standard strains: TA98, TA100, TA1535, TA1537, and TA1538), Assay Type: Histidine reverse gene mutation, Ames assay, Assay Code: SAL+, Evaluation Type: Evaluation A (Pre-1980)) was “active; positive”.
On to `CCOc1ccc(CC(=O)OC)cc1CSC(=N)N`, for which the mutagenic call (Species/Cell Type: Saccharomyces cerevisiae, Assay Type: Reverse gene mutation, Assay Code: YERT, Evaluation Type: Evaluation A (Pre-1980)) is “no conclusion”.
Consider `Cc1ccc2c(ccc3cc4ccccc4cc32)c1`, for which the mutagenic call by setting is: under setting [3], “inactive; negative”; under setting [8], “active; positive”.
For `O=c1[nH]cc(Br)c(=O)[nH]1`, the mutagenic call is, setting by setting: (Species/Cell Type: Hordeum vulgare (barley), Assay Type: Gene mutation, Assay Code: HOM+D, Dose Response: With dose response, Evaluation Type: Evaluation A (Pre-1980)) “active; positive”; under setting [2], “inactive; negative”; (Species/Cell Type: Vicia faba, Assay Type: Chromosome aberrations, Assay Code: VIC+, Evaluation Type: Evaluation A (Pre-1980)) “active; positive”.
As to `O=CCCCC=O`, the mutagenic call runs as follows: (Species/Cell Type: Chinese hamster ovary (CHO) cells, Assay Type: Forward gene mutation at the HPRT locus, Assay Code: CHO-, Evaluation Type: Evaluation B (Post-1980)) “inactive; negative”; under setting [9], “active; positive”.
As for `OCSc1ncc[nH]1`, the mutagenic call (Species/Cell Type: Arabidopsis species, Assay Type: Gene mutation, Assay Code: ARM-, Evaluation Type: Evaluation A (Pre-1980)) is “inactive; negative”.
For `COc1cc(=O)oc(/C=C/C=C/C=C/C(C)=C/[C@]2(C)O[C@H](C)[C@](C)(O)[C@H]2O)c1C`, the mutagenic call under setting [10] is “inactive; negative”.
Turning to `Nc1ccc(-c2nc(NCC(O)CO)c3ccccc3n2)s1` (centres undefined), the mutagenic call under setting [7] was “no conclusion”.
`NNC(=O)c1ccncc1`: the mutagenic call by setting is: under setting [1], “active; positive”; (Species/Cell Type: Mammalian germ cells, Sex: Male, Assay Type: Chromosome aberrations in vivo, Assay Code: CY9T, Evaluation Type: Evaluation A (Pre-1980)) “no conclusion”; (Species/Cell Type: Mammalian oocytes or early embryo, Assay Type: Chromosome aberrations in vivo, Assay Code: CYO-, Evaluation Type: Evaluation A (Pre-1980)) “inactive; negative”; (Species/Cell Type: Mouse, Sex: Female, Assay Type: Spot test, gene mutation, Assay Code: MSTT, Evaluation Type: Evaluation A (Pre-1980)) “no conclusion”; (Species/Cell Type: Mouse, Sex: Male, Assay Type: Sperm morphology, Assay Code: SPI-, Evaluation Type: Evaluation A (Pre-1980)) “inactive; negative”; under setting [9], “active; positive”. Further, the mutagenic call was “no conclusion” (Species/Cell Type: Nonhuman, Assay Type: Sister-chromatid exchange (SCE) in vivo, Assay Code: SC3T, Evaluation Type: Evaluation B (Post-1980)); “inactive; negative” (Species/Cell Type: Rabbit, Sex: Male, Assay Type: Sperm morphology, Assay Code: SPR-, Evaluation Type: Evaluation A (Pre-1980)); “inactive; negative” under setting [6]; “no conclusion” (Species/Cell Type: Salmonella typhimurium, Assay Type: Forward and reverse gene mutation, body fluid assay, Assay Code: BFUT, Evaluation Type: Evaluation A (Pre-1980)); “active; positive” (Species/Cell Type: Salmonella typhimurium, Assay Type: Forward and reverse gene mutation, host-mediated assay, Assay Code: HMA+, Evaluation Type: Evaluation A (Pre-1980)). Further, under “Species/Cell Type: Nonhuman, Assay Code: CCG+L, Evaluation Type: Evaluation A (Pre-1980)”, the call was “active; positive”.
`CS(=O)(=O)OCCNC[C@@H](O)[C@@H](O)CNCCOS(C)(=O)=O`: the mutagenic call (Species/Cell Type: Human lymphocytes, Assay Type: Sister-chromatid exchange (SCE) in vitro, Assay Code: SCL+D, Dose Response: With dose response, Evaluation Type: Evaluation A (Pre-1980)) was “active; positive” and the mutagenic call (Species/Cell Type: Human, Assay Type: Sister-chromatid exchange (SCE) in vitro, Assay Code: SC1+D, Dose Response: With dose response, Evaluation Type: Evaluation A (Pre-1980)) was “active; positive”.
As for `ClCC1(Cl)OC1Cl` (centres undefined), the mutagenic call is “active; positive” (Species/Cell Type: Neurospora crassa, Assay Type: Forward gene mutation, Assay Code: NEF+, Evaluation Type: Evaluation A (Pre-1980)) and “active; positive” under setting [4].
For the molecule `[Cl][Fe]([Cl])[Cl]`, under setting [10], the mutagenic call is “inactive; negative”.
For `O=C1c2ccccc2C(=O)c2c(O[C@@H]3O[C@H](CO)[C@@H](O)[C@H](O)[C@H]3O)ccc(O)c21`, under setting [8], the mutagenic call was “active; positive”.
Consider `CN[C@H]1[C@@H](O[C@@H]2C3CC#CC4O[C@@]4(C4COC(=O)O4)C#CC3=C[C@H]2OC(=O)c2c(O)ccc3c(C)cc(OC)cc23)O[C@H](C)[C@H](O)[C@@H]1O` (some centres undefined), for which the mutagenic call runs as follows: (Species/Cell Type: Escherichia coli WP2, Assay Type: Tryptophan reverse gene mutation, Assay Code: WP2+D, Dose Response: With dose response, Evaluation Type: Evaluation A (Pre-1980)) “active; positive”; (Species/Cell Type: Escherichia coli WP2 UVRA, Assay Type: Tryptophan reverse gene mutation, Assay Code: WPU+D, Dose Response: With dose response, Evaluation Type: Evaluation A (Pre-1980)) “active; positive”; (Species/Cell Type: Human diploid fibroblasts, Assay Type: Unscheduled DNA synthesis (UDS) in vitro, DNA effects, Assay Code: UDH+D, Dose Response: With dose response, Evaluation Type: Evaluation A (Pre-1980)) “active; positive”; under setting [9], “active; positive”.
As to `O=P(O)(O)O`, the mutagenic call (Species/Cell Type: Syrian hamster embryo (SA7/SHE) cells, Assay Type: Cell transformation, viral enhanced, Assay Code: CT7-, Evaluation Type: Evaluation A (Pre-1980)) was “inactive; negative”.
